From patent US20190208778A1, “INSECT REPELLENT SURFACE COMPOSITION” (ENVANCE TECHNOLOGIES, LLC, priority 2012, published 2019)

Tested on: Musca domestica
Experiment: House fly surface repellent bioassay (treated floor tile bait stations)
Assay type: in vivo
Conditions: house flies
Method: 100 adult house flies (Musca domestica) were placed into the assay then exposed to treated bait stations, a control and test treatment. Fly response to the bait stations were recorded at predetermined time points with a video camera. Percent repellency was calculated and comparisons between treatments were made. All test house fly specimens were taken from in-house laboratory reared colonies, and were confirmed alive and in good condition prior to testing. No specimens showing any visible signs of stress, physical damage or pathogen infection were used in the study. When applicable a 1:1 male to female sex ratio was used to ensure equal susceptibility. The test arena was assembled and prepared prior to test initiation. The test arena consisted of a large 73.66 cm×73.66 cm×73.66 cm PVC frame work fitted with Thrips screening. At the top of the enclosed arena a USB powered video camera was suspended and centered over a 62.87 cm×62.87 cm section of white ceiling tile divided (marked with pencil) into equal quadrants. The bait stations were constructed as follows: A 1⁄4'' diameter hole was drilled in the center of a 10.8 cm by 10.8 cm white glazed clay tile. A 50 ml Falcon tube cap was affixed to the bottom of the tile over the hole to create a reservoir for the bait to be contained. Bait was pipetted into the reservoir then a cotton wick in inserted into the hole preventing flies from entering the reservoir and allowing bait to wick to the surface. The bait was at a 4:1:1 ratio of water, sugar, and coffee creamer. The chemical application method was as follows: Material was pipette applied to tile surface and allowed approximately 1 hour to dry. The chemical volume applied was 34 μl. Fly specimens were exposed for 24 hours. Assays were performed with a minimum of three replicates. The Tyra Tech Insect repellent surface cleaning/washing composition was comprised of 14.8% Active Ingredient (AI) blend and 85.2% other ingredients. It was confirmed that video cameras were appropriately viewing the center of the ceiling tile with a computer and computer program (such as […]). Flies were anesthetized with CO2 and then 100 flies were placed into a clean container. Insects were allowed to recover and acclimate to testing conditions for 1 hour prior to test initiation by placing and opening container with flies into assembled assay arena and allowing flies to disperse. All surfaces of bait station were cleaned with ethanol and allowed to dry. A pipette were used to treat the tile surface with the test material and treatment was spread over entire surface with pipette tip; material was allowed to dry for approximately 1 hour prior to test initiation. When dry, 5 ml of bait was pipetted into the reservoir. A cotton wick was inserted into the hole to ensuring that the top of the wick sits flush with the tile surface. A treated and a control bait station was placed into the test arena, one each centered within a randomly designated quadrant opposite of each other into a testing arena. Cameras were allowed to capture fly response over a 24 hour time period. Images were transferred to computer and data were analyzed. Photos were taken at each of the following time points: 15 minutes, 30 minutes, 1, 2, 3, 4, 5, 6, 7, 8, 12, 18 and 24 hours post introduction of treatment. At the conclusion of the test the image files were reviewed and the number of flies at each bait station was counted and recorded for both treatment and control. Average percent repellency was used as a standard measure of repellency of the treatments against insect species. Percent repellency was calculated for each treatment replicate by the following formula: Mean percent repellency for each treatment based on the data of the replicates at the given observation time points: Repellency between treatments was then compared using SAS version 9.3 to calculate the repeated measures ANOVA with time as repeated measure. Tukey's correction was used to ensure a remained at 0.05.

`CCN(CC)C(=O)c1cccc(C)c1` [DEET] was tested, and the “Average mean percent repellency over 24 hours” value was 57.1%, the “Median mean percent repellency over 24 hours” value was 61.3% and the “statistical comparison of repellency between treatments” value (repeated measures ANOVA, Tukey's correction) was “significantly less repellent than any other treatment”. The mean percent repellency (time 0.25 h post introduction) was 66.7%, the mean percent repellency (time 1 h) was 75.0% and the mean percent repellency (time 2 h) was 0.0%. The mean percent repellency (time 3 h) was 50.0%, the mean percent repellency (time 4 h) was 50.0% and the mean percent repellency (time 5 h) was 62.5%. The mean percent repellency (time 6 h) was 22.2%, the mean percent repellency (time 7 h) was 60.0% and the mean percent repellency (time 8 h) was 70.6%. The mean percent repellency (time 12 h) was 44.4%, the mean percent repellency (time 18 h) was 83.3% and the mean percent repellency (time 24 h) was 100.0%.
